Results taken from patent publication US7662826B2, “Pyrazolo [1,5-a] pyrimidine derivative and nad (p) h oxidase inhibitor containing the same” (Shionogi & Co., Ltd., priority 2002, dated 2010).

| Compound | melting point |
| --- | --- |
| O=C(Nc1ccccc1N1CC[C@@H](NCCO)C1)c1ccn2ncc(-c3cccc(Cl)c3)c2n1 [Compound B170] | 125 to 127 °C |
| CCCCNC1CCN(c2ccccc2NC(=O)c2cnc3c(-c4cccc(Cl)c4)cnn3c2)CC1 [Compound B8] | 191 to 192 °C |
| O=C(Nc1cnc2c(-c3ccc(Cl)cc3)cnn2c1)Nc1ccccc1N1CCNCC1 [Compound B218] | 183 to 184 °C |
| O=C(Nc1ccccc1N1CC[C@H](NCCO)C1)c1ccn2ncc(-c3cccc(Cl)c3)c2n1 [Compound B171] | 124 to 125 °C |
| NCCN[C@@H]1CCN(c2ccccc2NC(=O)c2ccn3ncc(-c4cccc(Cl)c4)c3n2)C1.O=C(O)/C=C/C(=O)O [Compound B172] | 151 to 152 °C |
| CCNC1CCN(c2ccccc2NC(=O)Nc2cnc3c(-c4ccc(Cl)cc4)cnn3c2)CC1 [Compound B38] | 155 to 157 °C |
| CCCNC1CCN(c2ccccc2NC(=O)c2cnc3c(-c4ccc(Cl)cc4)cnn3c2)CC1 [Compound B19] | 235 to 237 °C |
| NC[C@H]1CCCN1c1ccccc1NC(=O)c1ccn2ncc(-c3ccc(Cl)cc3)c2n1 [Compound B318] | 186 to 188 °C |
| CNC1CCN(c2ccccc2NC(=O)Nc2cnc3c(-c4ccc(Cl)cc4)cnn3c2)CC1 [Compound B36] | 137 to 140 °C |
| O=C(Nc1cnc2c(-c3ccc(Cl)cc3)cnn2c1)c1ccccc1N1CCNCC1 [Compound B277] | 236 to 238 °C |
| O=C(Nc1ccc(N2CCNCC2)cc1)c1cnc2c(-c3ccc(Cl)cc3)cnn2c1 [Compound B280] | 267 to 269 °C (dec.) |
| CNC[C@H]1CCCN1c1ccccc1NC(=O)c1ccn2ncc(-c3cccc(Cl)c3)c2n1 [Compound B215] | 97 to 98 °C |
| CCC(C)NC1CCN(c2ccccc2NC(=O)Nc2cnc3c(-c4ccc(Cl)cc4)cnn3c2)CC1 (stereo not shown) [Compound B336] | > 300 °C |
| COc1ccc(NC(=O)c2ccn3ncc(-c4cccc(Cl)c4)c3n2)cc1N1CCNCC1 [Compound B314] | 100 to 102 °C (dec.) |
| O=C(NCc1ccccc1N1CCOCC1)c1ccn2nc(-c3ccccc3)cc2n1 [Example 12, N-(2-morpholinophenyl)methyl 2-phenyl-pyrazolo-[1,5-a]-pyrimidine-5-amide] | 190 to 192 °C |
| CCNC1CCN(c2ccccc2NC(=O)c2cnc3c(-c4ccc(Cl)cc4)cnn3c2)CC1 [Compound B17] | 234 to 236 °C |
| O=C(Nc1cnc2c(-c3cccc(Cl)c3)cnn2c1)c1ccccc1N1CCNCC1 [Compound B165] | 269 to 271 °C |
| NCCN[C@H]1CCN(c2ccccc2NC(=O)c2ccn3ncc(-c4cccc(Cl)c4)c3n2)C1 [Compound B173] | 160 to 162 °C |
| CCCNC1CCN(c2ccccc2NC(=O)c2cnc3c(-c4cccc(Cl)c4)cnn3c2)CC1 [Compound B6] | 187 to 189 °C |
| O=C(NCc1ccccc1N1CCNCC1)Nc1cnc2c(-c3cccc(Cl)c3)cnn2c1 [Compound B40] | 196 to 197 °C |
| O=C(Nc1ccccc1N1CCC(O)CC1)c1cnc2c(-c3ccc(Cl)cc3)cnn2c1 [Compound B24] | 256 to 261 °C |
| C=CCNC1CCN(c2ccccc2NC(=O)c2cnc3c(-c4ccc(Cl)cc4)cnn3c2)CC1 [Compound B20] | 229 to 230 °C |
| CCCNC1CCN(c2ccccc2NC(=O)Nc2cnc3c(-c4cccc(Cl)c4)cnn3c2)CC1 [Compound B199] | 152 to 155 °C |
| NC[C@@H]1CCCN1c1ccccc1NC(=O)c1cnc2c(-c3ccc(Cl)cc3)cnn2c1 [Compound B30] | 203 to 204 °C |
| C=CCNC1CCN(c2ccccc2NC(=O)Nc2cnc3c(-c4cccc(Cl)c4)cnn3c2)CC1 [Compound B59] | 150 to 154 °C (dec.) |
| CNC1CCN(c2ccccc2NC(=O)c2cnc3c(-c4ccc(Cl)cc4)cnn3c2)CC1 [Compound B16] | 226 to 228 °C |

| Compound | melting point |
| --- | --- |
| NC[C@H]1CCCN1c1ccccc1NC(=O)c1ccn2ncc(-c3cccc(Cl)c3)c2n1 [Compound B196] | 168 to 170 °C |
| CCCCNC1CCN(c2ccccc2NC(=O)c2cnc3c(-c4ccc(Cl)cc4)cnn3c2)CC1 [Compound B23] | 222 to 224 °C |
| CNC1CCN(c2ccccc2NC(=O)c2cnc3c(-c4cccc(Cl)c4)cnn3c2)CC1 [Compound B3] | 215 to 217 °C |
| O=C(Nc1ccccc1N1CC[C@@H](NCCO)C1)c1cnc2c(-c3ccc(Cl)cc3)cnn2c1 [Compound B245] | 164 to 165 °C |
| CC(C)NC1CCN(c2ccccc2NC(=O)c2cnc3c(-c4cccc(Cl)c4)cnn3c2)CC1 [Compound B9] | 206 to 208 °C |
| CCCNC1CCN(c2ccccc2NC(=O)Nc2cnc3c(-c4ccc(Cl)cc4)cnn3c2)CC1 [Compound B41] | 151 to 153 °C |
| CCCCNC1CCN(c2ccccc2NC(=O)Nc2cnc3c(-c4ccc(Cl)cc4)cnn3c2)CC1 [Compound B293] | 138 to 143 °C |
| CC(C)NC1CCN(c2ccccc2NC(=O)Nc2cnc3c(-c4ccc(Cl)cc4)cnn3c2)CC1 [Compound B203] | > 300 °C |
| CCC(C)NC1CCN(c2ccccc2NC(=O)c2cnc3c(-c4cccc(Cl)c4)cnn3c2)CC1 (stereo not shown) [Compound B11] | 202 to 204 °C |
| CNC1CCN(c2ccccc2NC(=O)Nc2cnc3c(-c4cccc(Cl)c4)cnn3c2)CC1 [Compound B55] | 117 to 128 °C (dec.) |
| O=C(Nc1ccccc1N1CCC[C@H]1CNCCO)c1cnc2c(-c3ccc(Cl)cc3)cnn2c1 [Compound B25] | 134 to 136 °C |
| CCCNC1CCN(c2ccccc2NC(=O)C2=CNc3c(-c4ccc(Cl)cc4)cnn3C2)CC1 [Compound B319] | 216 to 217 °C |
| CCNC1CCN(c2ccccc2NC(=O)c2cnc3c(-c4cccc(Cl)c4)cnn3c2)CC1 [Compound B5] | 193 to 195 °C |
| NCC1CCCCN1c1ccccc1NC(=O)c1ccn2ncc(-c3cccc(Cl)c3)c2n1 (stereo not shown) [Compound B316] | 159 to 160 °C |
| CC(C)NC1CCN(c2ccccc2NC(=O)c2cnc3c(-c4ccc(Cl)cc4)cnn3c2)CC1 [Compound B18] | 246 to 247 °C |
| N[C@@H]1CCN(c2ccccc2NC(=O)c2cnc3c(-c4ccc(Cl)cc4)cnn3c2)C1 [Compound B28] | 184 to 186 °C |
| Clc1cccc(-c2cnn3ccc(/C4=N/c5ccccc5N5CCCCC5CN4)nc23)c1 (stereo not shown) [Compound B292] | 190 to 191 °C |
| O=C1CCN(c2ccccc2NC(=O)c2cnc3c(-c4cccc(Cl)c4)cnn3c2)CC1 [Compound B1] | 212 °C |
| C=CCNC1CCN(c2ccccc2NC(=O)Nc2cnc3c(-c4ccc(Cl)cc4)cnn3c2)CC1 [Compound B43] | 152 to 153 °C |
| COc1ccc(NC(=O)c2ccn3ncc(-c4ccc(Cl)cc4)c3n2)cc1N1CCNCC1 [Compound B317] | 210 to 212 °C |
| CCNC1CCN(c2ccccc2NC(=O)Nc2cnc3c(-c4cccc(Cl)c4)cnn3c2)CC1 [Compound B58] | 157 to 159 °C (dec.) |
| O=C(Nc1cnc2c(-c3cccc(Cl)c3)cnn2c1)Nc1ccccc1N1CCNCC1 [Compound B249] | 120 to 140 °C |
| O=C(Nc1ccccc1N1CCC[C@@H]1CNCCO)c1ccn2ncc(-c3cccc(Cl)c3)c2n1 [Compound B198] | 118 to 121 °C |
| O=C(NCc1ccccc1N1CCNCC1)Nc1cnc2c(-c3ccc(Cl)cc3)cnn2c1 [Compound B263] | 185 to 187 °C |
| CCC(C)NC1CCN(c2ccccc2NC(=O)c2cnc3c(-c4ccc(Cl)cc4)cnn3c2)CC1 (stereo not shown) [Compound B243] | 229 to 231 °C |
| NCCC1CCCCN1c1ccccc1NC(=O)c1ccn2ncc(-c3cccc(Cl)c3)c2n1.O=C(O)/C=C/C(=O)O (stereo not shown) [Compound B313] | 211 to 212 °C |
